Data reported in ChEMBL document CHEMBL5724914, “Linking interpersonal differences in gut microbiota composition and drug biotransformation activity” (2024).

Experiments:
[1] = The drug is tested on Z-026 corresponding to metagenome with ENA study accession number: PRJEB37062 and ENA sample accession number: ERS12561825 for biotransformation under anaerobic condition. The drug concentrations were measured over 9 timepoints collected between 0 and 24 hours of incubation by liquid-chromatography-coupled mass spectrometry (LC–MS); conditions: 2 µM
[2] = The drug is tested on Z-025 corresponding to rabbit gut metagenome with ENA study accession number: PRJEB37062 and ENA sample accession number: ERS12561824 for biotransformation under anaerobic condition. The drug concentrations were measured over 9 timepoints collected between 0 and 24 hours of incubation by liquid-chromatography-coupled mass spectrometry (LC–MS); conditions: 2 µM
[3] = The drug is tested on Z-023 corresponding to metagenome with ENA study accession number: PRJEB37062 and ENA sample accession number: ERS12561822 for biotransformation under anaerobic condition. The drug concentrations were measured over 9 timepoints collected between 0 and 24 hours of incubation by liquid-chromatography-coupled mass spectrometry (LC–MS); conditions: 2 µM
[4] = The drug is tested on Z-012 corresponding to metagenome with ENA study accession number: PRJEB37062 and ENA sample accession number: ERS12561812 for biotransformation under anaerobic condition. The drug concentrations were measured over 9 timepoints collected between 0 and 24 hours of incubation by liquid-chromatography-coupled mass spectrometry (LC–MS); conditions: 2 µM
[5] = The drug is tested on WLS-220 corresponding to human gut metagenome with ENA study accession number: PRJEB37062 and ENA sample accession number: ERS12561769 for biotransformation under anaerobic condition. The drug concentrations were measured over 9 timepoints collected between 0 and 24 hours of incubation by liquid-chromatography-coupled mass spectrometry (LC–MS); conditions: 2 µM
[6] = The drug is tested on WLS-082 corresponding to human gut metagenome with ENA study accession number: PRJEB37062 and ENA sample accession number: ERS12561751 for biotransformation under anaerobic condition. The drug concentrations were measured over 9 timepoints collected between 0 and 24 hours of incubation by liquid-chromatography-coupled mass spectrometry (LC–MS); conditions: 2 µM
[7] = The drug is tested on WLS-077 corresponding to human gut metagenome with ENA study accession number: PRJEB37062 and ENA sample accession number: ERS12561750 for biotransformation under anaerobic condition. The drug concentrations were measured over 9 timepoints collected between 0 and 24 hours of incubation by liquid-chromatography-coupled mass spectrometry (LC–MS); conditions: 2 µM
[8] = The drug is tested on WLS-073 corresponding to human gut metagenome with ENA study accession number: PRJEB37062 and ENA sample accession number: ERS12561749 for biotransformation under anaerobic condition. The drug concentrations were measured over 9 timepoints collected between 0 and 24 hours of incubation by liquid-chromatography-coupled mass spectrometry (LC–MS); conditions: 2 µM
[9] = human gut metagenome, 24 h, 2 µM
[10] = human gut metagenome, 24 h, 2 µM; remark: listed apart in the source
[11] = human gut metagenome, 24 h, 2 µM; remark: listed apart in the source
[12] = human gut metagenome, 24 h, 2 µM; remark: listed apart in the source
[13] = human gut metagenome, 24 h, 2 µM; remark: listed apart in the source
[14] = human gut metagenome, 24 h, 2 µM; remark: listed apart in the source
[15] = human gut metagenome, 24 h, 2 µM; remark: listed apart in the source
[16] = human gut metagenome, 24 h, 2 µM; remark: listed apart in the source
[17] = human gut metagenome, 24 h, 2 µM; remark: listed apart in the source
[18] = human gut metagenome, 24 h, 2 µM; remark: listed apart in the source
[19] = human gut metagenome, 24 h, 2 µM; remark: listed apart in the source
[20] = human gut metagenome, 24 h, 2 µM; remark: listed apart in the source
Note: call rule not given here.

Row | SMILES | Bacterial Biotransformation [1] | Bacterial Biotransformation [2] | Bacterial Biotransformation [3] | Bacterial Biotransformation [4] | Bacterial Biotransformation [5] | Bacterial Biotransformation [6] | Bacterial Biotransformation [7] | Bacterial Biotransformation [8] | Bacterial Biotransformation [9] | Bacterial Biotransformation [10] | Bacterial Biotransformation [11] | Bacterial Biotransformation [12] | Bacterial Biotransformation [13] | Bacterial Biotransformation [14] | Bacterial Biotransformation [15] | Bacterial Biotransformation [16] | Bacterial Biotransformation [17] | Bacterial Biotransformation [18] | Bacterial Biotransformation [19] | Bacterial Biotransformation [20]
1 | CN1CCC(OC(c2ccccc2)c2ccccc2)CC1 | Compound NOT metabolized | Compound metabolized | Compound metabolized | Compound NOT metabolized | Compound metabolized | Compound NOT metabolized | Compound NOT metabolized | Compound NOT metabolized | Compound NOT metabolized | Compound metabolized | Compound metabolized | Compound metabolized | Compound metabolized | Compound NOT metabolized | Compound NOT metabolized | Compound NOT metabolized | Compound NOT metabolized | Compound NOT metabolized | Compound metabolized | Compound metabolized
2 | CC1=C(CC(=O)O)c2cc(F)ccc2/C1=C\c1ccc([S+](C)[O-])cc1 (centres undefined) | Compound metabolized | Compound NOT metabolized | Compound metabolized | Compound NOT metabolized | Compound metabolized | Compound metabolized | Compound metabolized | Compound metabolized | Compound metabolized | Compound metabolized | Compound metabolized | Compound metabolized | Compound metabolized | Compound metabolized | Compound metabolized | Compound metabolized | Compound metabolized | Compound metabolized | – | Compound metabolized
3 | CCOC(=O)[C@H](CCc1ccccc1)N[C@@H](C)C(=O)N1Cc2ccccc2C[C@H]1C(=O)O | Compound NOT metabolized | Compound NOT metabolized | Compound metabolized | Compound NOT metabolized | Compound metabolized | Compound metabolized | Compound metabolized | Compound metabolized | Compound NOT metabolized | Compound metabolized | Compound metabolized | Compound metabolized | Compound metabolized | Compound metabolized | Compound metabolized | Compound metabolized | Compound metabolized | Compound NOT metabolized | Compound metabolized | Compound metabolized
4 | CCN1CCCC1CNC(=O)c1cc(S(=O)(=O)CC)c(N)cc1OC (centres undefined) [AMISULPRIDE] | Compound NOT metabolized | Compound NOT metabolized | Compound NOT metabolized | Compound NOT metabolized | Compound NOT metabolized | Compound NOT metabolized | Compound NOT metabolized | Compound NOT metabolized | Compound NOT metabolized | Compound NOT metabolized | Compound metabolized | Compound metabolized | Compound NOT metabolized | Compound metabolized | Compound NOT metabolized | Compound metabolized | Compound metabolized | Compound NOT metabolized | Compound metabolized | Compound NOT metabolized
5 | CC(C)NCC(O)COc1ccc(CC(N)=O)cc1 (centres undefined) [ATENOLOL] | Compound NOT metabolized | Compound NOT metabolized | Compound NOT metabolized | Compound NOT metabolized | Compound NOT metabolized | Compound NOT metabolized | Compound metabolized | Compound NOT metabolized | Compound NOT metabolized | Compound NOT metabolized | Compound NOT metabolized | Compound NOT metabolized | Compound NOT metabolized | Compound NOT metabolized | Compound NOT metabolized | Compound metabolized | Compound metabolized | Compound metabolized | Compound metabolized | Compound metabolized
6 | CC(=O)OCC(=O)[C@@]1(OC(C)=O)[C@@H](C)C[C@H]2[C@@H]3C[C@H](F)C4=CC(=O)C=C[C@]4(C)[C@@]3(F)[C@@H](O)C[C@@]21C [DIFLORASONE DIACETATE] | Compound NOT metabolized | Compound NOT metabolized | Compound NOT metabolized | Compound metabolized | Compound metabolized | Compound metabolized | Compound metabolized | Compound metabolized | Compound metabolized | Compound metabolized | Compound metabolized | Compound metabolized | Compound metabolized | Compound metabolized | Compound metabolized | Compound metabolized | Compound metabolized | Compound metabolized | Compound metabolized | Compound metabolized
